The values below come from PMC5404532, “Simplified Reversed Chloroquines To Overcome Malaria Resistance to Quinoline-Based Drugs” (Antimicrobial Agents and Chemotherapy, 2017).

Each structure is given as a SMILES string. pIC50, pKd: −log10 of the molar value. Read-outs that look alike come from different tables or passages of the source.

The subject of data set [1] is P. falciparum 7G8 (CQR). Briefly: Inhibition of P. falciparum growth, CQR 7G8 (SYBR green I fluorescence). Format: cell-based, Plasmodium falciparum. Particulars: Plasmodium falciparum, 7G8, 72 h; read-out: IC50 (nM) for P. falciparum 7G8. The source says:
(§1) Inhibition of P. falciparum growth.
(§2) CQS (D6) and CQR (Dd2 and 7G8) P. falciparum maintained continuously in culture were used ([38]). […] The fluorescence readings were plotted against log(drug), and the IC50s were obtained from curve fitting performed by nonlinear regression using either Prism (GraphPad) or Excel (Microsoft) software.

The subject of data set [2] is P. falciparum D6 (CQS). In words: Inhibition of P. falciparum growth, CQS D6 (SYBR green I fluorescence). It is filed as cell-based. The note with it: Plasmodium falciparum; for IC50: D6, 72 h, read-out: IC50 (nM) for P. falciparum D6.
Source text: as §1, §2

The nature of data set [3]: Single-dose toxicity evaluation in mice. Format: in vivo. Particulars: for Toxicity observation: single-dose experiments on 1 or 2 mice/compound, doses limited by water solubility. Here is the method:
The compounds were first converted to water-soluble hydrochloride or phosphate salts for administration in aqueous solution. Efficacy testing was carried out using 4 different dose levels with 5 mice at each level, administered by oral gavage. […] A single-dose toxicity evaluation was also performed, using 1 or 2 mice in each case.

Data set [4] can be described thus: In vitro heme binding (optical titration). The note with it: 5 μM heme, phosphate buffer 100 mM, pH 5.7; read-out: heme binding dissociation constant (Kd). Here is the method:
In vitro heme binding and β-hematin inhibition.
A 5 mM stock solution of heme was prepared by dissolving heme chloride in 0.1 mM NaOH by incubation at 37°C for 30 min. The solution was stored at 4°C for no more than 1 month. At the beginning of each experiment, the stock heme solution was diluted to 5 μM in phosphate buffer (100 mM, pH 5.7) and allowed to equilibrate for 4 h. The 4-h equilibration allowed for the initial heme absorbance to stabilize prior to beginning the titration. Optical titrations with each compound were performed by successive addition of aliquots of its stock solution to the 5 μM heme solution. […] Equilibrium binding constants were determined by nonlinear least-squares analysis ([39]).

Data set [5] deals with P. falciparum Dd2 (CQR). Briefly: Inhibition of P. falciparum growth, CQR Dd2 (SYBR green I fluorescence). Format: cell-based. The note with it: Plasmodium falciparum; for IC50: DD2, 72 h, read-out: IC50 (nM) for P. falciparum Dd2.
Source text: as §1, §2

The subject of another data set is P. yoelii. In words: In vivo 3-day suppressive test against P. yoelii in a murine malaria model. Set-up: species or system Plasmodium yoelii. Particulars: mice, oral gavage, 3 daily doses, water-soluble hydrochloride or phosphate salts; errors estimated ±20%. Here is the method: A selection of the compounds (compounds 9, 10, 12, 21, 23, and 24) was tested in vivo against P. yoelii in a murine malaria model. The compounds were first converted to water-soluble hydrochloride or phosphate salts for administration in aqueous solution. Efficacy testing was carried out using 4 different dose levels with 5 mice at each level, administered by oral gavage. […] A single-dose toxicity evaluation was also performed, using 1 or 2 mice in each case. The doses were limited by water solubilities.
In vivo 3-day suppressive test.
Female CF-1 mice, at 4 to 5 weeks of age, were injected intravenously with 10^6 erythrocytes infected with P. yoelii ([43][–][45]). The following day, and then daily for a total of 3 doses, 5 mice each were administered the appropriate dose of the compound by gavage and evaluated by direct microscopic analysis of Giemsa-stained blood smears ([46]) 1 day after the final dose. The Portland State University Institutional Animal Care and Use Committee approved the protocols involving animals used in this study.

For data set [6], the system named is mouse spleen lymphocytes. The note with it: cited from earlier work.
In data set [7] the test system is P. falciparum 7G8 (CQR). The note with it: CQR 7G8, cited from earlier work.
Data set [8] concerns P. falciparum D6 (CQS). The note with it: cited from earlier work.
Data set [9] relates to P. falciparum Dd2 (CQR). Particulars: cited from earlier work.
Data set [10] has as its system mouse spleen lymphocytes. Briefly: Cytotoxicity against mouse spleen lymphocytes. It is filed as cell-based. The note with it: estimated ±50%.

Broadly, the IC50 is the concentration at which inhibition is half-maximal. One may read the pKd as −log10 of the Kd, conventionally taken in molar units. As usually defined, the ED50 is the midpoint of the dose-response relation. As to `COc1ccc(N2CCN(CCCNc3ccnc4cc(Cl)ccc34)CC2)cc1` [Compound 12, 7-Chloro-N-(3-(4-(4-methoxyphenyl)piperazin-1-yl)propyl)quinolin-4-amine], the IC50 worked out at 0.3 nM in the data set with P. falciparum 7G8 (CQR) [1], 1.3 nM with P. falciparum D6 (CQS) [2] and 0.3 nM in the data set with P. falciparum Dd2 (CQR) [5]. Besides, in data set [3], the Toxicity observation entry is given as “Well tolerated at 500 mg/kg”. Besides, in data set [4], the pKd is roughly 5.30. Moreover, the ED50 in the data set on P. yoelii is reported as 10 mg/kg/day.
Turning to `Clc1ccc2c(NCCCN3CCN(C(c4ccccc4)c4ccccc4)CC3)ccnc2c1` [Compound 3], the Cytotoxicity with mouse spleen lymphocytes [6] (ref Burgess et al. (33)) was 1,100 nM. The half-maximal inhibitory concentration (IC50) in the data set on P. falciparum 7G8 (CQR) [7] (ref Burgess et al. (33)) is 11 nM; with P. falciparum D6 (CQS) [8] (ref Burgess et al. (33)), 1.9 nM; in the data set with P. falciparum Dd2 (CQR) [9] (ref Burgess et al. (33)), 2.6 nM.
With `CN(CCCNc1ccnc2cc(Cl)ccc12)CCCN1c2ccccc2CCc2ccccc21` [Compound 1], the Cytotoxicity with mouse spleen lymphocytes [6] (ref Burgess et al. (31)) is 700 nM. Moreover, the IC50 with P. falciparum 7G8 (CQR) [7] (ref Burgess et al. (31)) was 4 nM; in the data set with P. falciparum D6 (CQS) [8] (ref Burgess et al. (31)), 2.9 nM; in the data set on P. falciparum Dd2 (CQR) [9] (ref Burgess et al. (31)), 5.3 nM.
In the case of `Clc1ccc2c(NCCCN3CCNCC3)ccnc2c1` [Compound 16], the Cytotoxicity in the data set with mouse spleen lymphocytes [6] (ref Burgess et al. (33)) is listed as 23,000 nM. For the same compound, the 50% inhibitory concentration (IC50) in the data set with P. falciparum D6 (CQS) [8] (ref Burgess et al. (33)) was 4.3 nM; in the data set with P. falciparum Dd2 (CQR) [9] (ref Burgess et al. (33)), 6.8 nM.
For the compound `O=C(CNCCNc1ccnc2cc(Cl)ccc12)N(Cc1ccccc1)Cc1ccccc1` [Compound 2], the Cytotoxicity with mouse spleen lymphocytes [6] (ref Andrews et al. (32)) is 62,000 nM. In addition, the IC50 is 14 nM with P. falciparum D6 (CQS) [8] (ref Andrews et al. (32)) and 16 nM with P. falciparum Dd2 (CQR) [9] (ref Andrews et al. (32)).
The term pIC50 denotes the IC50 on a negative log10 scale, so that one unit is a factor of ten. For `Clc1ccc2c(NCCCN3CCN(c4ccccc4)CC3)ccnc2c1` [Compound 9, 7-Chloro-N-(3-(4-phenylpiperazin-1-yl)propyl)quinolin-4-amine], the half-inhibitory concentration (IC50) in the data set with P. falciparum 7G8 (CQR) [1] came out at 0.6 nM; in the data set on P. falciparum D6 (CQS) [2], 0.4 nM; in the data set on P. falciparum Dd2 (CQR) [5], 0.7 nM. In addition, the pIC50 in the data set with P. falciparum D6 (CQS) [2] (D6, read-out: IC50 from dose-response curve against CQS D6 (Fig 4a)) was 9.30; in the data set on P. falciparum Dd2 (CQR) [5] (DD2, read-out: IC50 from dose-response curve against CQR Dd2 (Fig 4b)) it was 9.30. For the same compound, the Toxicity observation result in data set [3] is on record as “Well tolerated at 300 mg/kg”. Moreover, the “dose without evident toxicity as multiple of the ED50” value in data set [3] (single-dose toxicity screen in mice vs ED50 against P. yoelii) is 150 fold. The pKd in data set [4] is roughly 5.30. Besides, in the data set with mouse spleen lymphocytes [10], the Cytotoxicity was 6,400 nM. The ED50 in the data set on P. yoelii is 2 mg/kg/day.
